Patent EP3046573B1, “AMYLIN ANALOGUES” (Zealand Pharma A/S, priority 2013, dated 2015)
pEC50: −log10 of the molar value. Read-outs that look alike come from different tables or passages of the source. Numbered stars: 1 amine (or outer) side, 2 acyl side, 3 side chain; on linkers, the order of the positions; unused ones are H or OH. Bridge positions count the residues as written; N and C are the ends. Square brackets hold non-standard residues; d marks the D form. Peptide text beside a SMILES is read from it. * marks the point of attachment. C20 diacid = O=C(O)CCCCCCCCCCCCCCCCCCC(=O)*; γGlu = O=C(O)[C@H](CCC(=O)[*:2])N[*:1]; NMeI = CC[C@H](C)[C@H](NC)C(=O)O; Sar = CNCC(=O)O

Molecular target: T1, human calcitonin receptor (hCTR2) (Homo sapiens, UniProt P30988)
T1 construct: expressed in transfected cells
T1 sequence (P30988 25-474): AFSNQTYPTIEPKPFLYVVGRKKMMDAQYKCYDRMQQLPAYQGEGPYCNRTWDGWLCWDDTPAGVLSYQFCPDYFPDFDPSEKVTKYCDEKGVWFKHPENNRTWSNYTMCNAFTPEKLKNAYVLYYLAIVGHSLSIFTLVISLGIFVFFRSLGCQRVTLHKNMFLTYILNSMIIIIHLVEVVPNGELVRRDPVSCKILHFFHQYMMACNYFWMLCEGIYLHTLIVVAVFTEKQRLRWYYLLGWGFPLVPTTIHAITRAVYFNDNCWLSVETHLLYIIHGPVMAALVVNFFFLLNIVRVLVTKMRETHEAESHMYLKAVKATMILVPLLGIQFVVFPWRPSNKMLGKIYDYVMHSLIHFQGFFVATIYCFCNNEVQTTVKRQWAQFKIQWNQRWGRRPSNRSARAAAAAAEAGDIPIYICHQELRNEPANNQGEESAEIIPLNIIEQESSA
Assay: hCTR2 assay: induction of cAMP (AlphaScreen cAMP Assay kit) in COS7 cells expressing hCTR2
Assay type: cell-based
Description: The cell line COS7, originating from African Green Monkey kidney fibroblast cells, was used for establishment of the stable cell lines described below. The COS7 cellular background was used due to it being RAMP naive, and as such it provides the best available system for testing of the monomeric hCTR and different heterodimeric amylin receptor subtypes functionally generated by introduction of the individual RAMPs.
A cell line expressing the human calcitonin receptor (hCTR2) was generated in the COS7 cellular background as stable clones. In brief, hCTR2 (GI: 4502547) was amplified by PCR using primers encoding terminal restriction sites for subcloning. The 5'-end primers additionally encoded a near Kozak consensus sequence to ensure efficient translation. The fidelity of the DNA encoding the receptor was confirmed by DNA sequencing. The PCR products encoding the receptor were subcloned into a mammalian expression vector containing a neomycin (G418) resistance marker. The mammalian expression vector encoding the receptor was transfected into COS7 cells by a standard liposome transfection method. 48 hours post-transfection, cells were seeded for limited dilution cloning and selected with 1 mg/ml G418 in the culture medium. After 3 weeks, surviving colonies of hCTR2-expressing cells were picked, propagated and tested in the amylin efficacy assay as described in Example 3 below. One hCTR2-expressing clone was chosen for compound profiling.
In vitro activity of test peptides at the hCTR2 and hAMYR3 receptors was assessed by measuring the induction of cAMP following stimulation of the receptor by pramlintide or peptides of the invention using the AlphaScreen® cAMP Assay kit from Perkin-Elmer.
Briefly, COS7 cells expressing hCTR2 (see Example 2, above) were seeded at 30-40,000 cells per well in 96-well microtiter plates coated with 0.01 % poly-L-lysine, and grown for 1 day in culture in 100 µl growth medium [DMEM, 10% FCS, Penicillin (100 IU/ml), Streptomycin (100 µg/ml)]. On the day of analysis, growth medium was removed and the cells were washed once with 200 µl Tyrode buffer [Tyrode's Salts (9.6 g/l), 10 mM HEPES, pH 7.4]. Cells were incubated in 100 µl Tyrode buffer containing increasing concentrations of test peptides, 100 µM IBMX and 0.1% casein for 15 min at 37° C. The reaction was stopped by carefully decanting off the compound/buffer medium and replacing it with lysis/detection buffer (80 µl 0.1 % w/v BSA, 5 mM HEPES, 0.3 % v/v Tween-20 in deionized water). After incubation at room temperature for 10 min., the cAMP content of the resulting cell lysate was estimated according to the AlphaScreen® cAMP Assay manufacturer's instructions. EC50 values and relative efficacy values (in %) compared to reference peptide (Pramlintide) were estimated by computer-aided curve fitting using the 4-parameter logistic (4PL) non-linear model.
The in vitro activity results (expressed as EC50 values) for peptides of the invention and for Pramlintide (reference peptide) are summarized in Table 2, below.

## CC[C@H](C)[C@@H](C(=O)N[C@@H](CC(C)C)C(=O)N[C@@H](CO)C(=O)N[C@@H](CO)C(=O)N[C@H](C(=O)N[C@@H](CC(N)=O)C(=O)N[C@H](C(=O)NCC(=O)N[C@@H](CO)C(=O)N[C@@H](CC(N)=O)C(=O)N[C@H](C(=O)N1CCC[C@H]1C(N)=O)[C@@H](C)O)C(C)C)[C@@H](C)O)N(C)C(=O)CN(C)C(=O)[C@H](Cc1ccccc1)NC(=O)[C@H](CC(N)=O)NC(=O)[C@@H](CC(N)=O)NC(=O)[C@H](CO)NC(=O)[C@H](CO)NC(=O)[C@H](Cc1c[nH]cn1)NC(=O)[C@H](Cc1c[nH]cn1)NC(=O)[C@H](CC(C)C)NC(=O)[C@H](Cc1ccccc1)NC(=O)[C@H](CCC(=O)O)NC(=O)[C@H](C)NC(=O)[C@H](CC(C)C)NC(=O)[C@H](CCCNC(=N)N)NC(=O)[C@H](CCC(N)=O)NC(=O)[C@@H](NC(=O)[C@H](C)NC(=O)[C@@H]1CSSC[C@H](NC(=O)[C@H](CCCNC(=N)N)NC(=O)CC[C@H](NC(=O)CCCCCCCCCCCCCCCCCCC(=O)O)C(=O)O)C(=O)N[C@@H](CC(N)=O)C(=O)N[C@@H]([C@@H](C)O)C(=O)N[C@@H](C)C(=O)N[C@@H]([C@@H](C)O)C(=O)N1)[C@@H](C)O [Compound 35, [19CD]-isoGlu-RC()NTATC()ATQRLAEFLHHSS-DAsn-NF-Gly(Me)-Ile(Me)-LSSTNVGSNTP-NH2] ({C20 diacid-γGlu}-RCNTATCATQRLAEFLHHSS[dN]NF[Sar][NMeI]LSSTNVGSNTP-NH2; disulfide 2-7)
  pEC50: 9.80

## CC[C@H](C)[C@@H](C(=O)N[C@@H](CC(C)C)C(=O)N[C@@H](CO)C(=O)N[C@@H](CO)C(=O)N[C@H](C(=O)N[C@@H](CC(N)=O)C(=O)N[C@H](C(=O)NCC(=O)N[C@@H](CO)C(=O)N[C@@H](CC(N)=O)C(=O)N[C@H](C(=O)N1CCC[C@H]1C(N)=O)[C@@H](C)O)C(C)C)[C@@H](C)O)N(C)C(=O)CN(C)C(=O)[C@H](Cc1ccccc1)NC(=O)[C@H](CC(N)=O)NC(=O)[C@H](CC(N)=O)NC(=O)[C@H](CO)NC(=O)[C@@H](CO)NC(=O)[C@H](Cc1c[nH]cn1)NC(=O)[C@H](Cc1c[nH]cn1)NC(=O)[C@H](CC(C)C)NC(=O)[C@H](Cc1ccccc1)NC(=O)[C@H](CCC(=O)O)NC(=O)[C@H](C)NC(=O)[C@H](CC(C)C)NC(=O)[C@H](CCCNC(=N)N)NC(=O)[C@H](CCC(N)=O)NC(=O)[C@@H](NC(=O)[C@H](C)NC(=O)[C@@H]1CSSC[C@H](NC(=O)[C@H](CCCNC(=N)N)NC(=O)CC[C@H](NC(=O)CCCCCCCCCCCCCCCCCCC(=O)O)C(=O)O)C(=O)N[C@@H](CC(N)=O)C(=O)N[C@@H]([C@@H](C)O)C(=O)N[C@@H](C)C(=O)N[C@@H]([C@@H](C)O)C(=O)N1)[C@@H](C)O [Compound 30, [19CD]-isoGlu-RC()NTATC()ATQRLAEFLHH-DSer-SNNF-Gly(Me)-Ile(Me)-LSSTNVGSNTP-NH2] ({C20 diacid-γGlu}-RCNTATCATQRLAEFLHH[dS]SNNF[Sar][NMeI]LSSTNVGSNTP-NH2; disulfide 2-7)
cAMP induction in COS7 cells expressing hCTR2, average of a minimum of 3 determinations, read-out: hCTR2 EC50
  pEC50: 9.25
